The results in this text go back to patent US8791132B2, “Compounds and methods for treatment of hypertension” (Medivation Technologies, Inc., priority 2011, dated 2014).

Like-named read-outs stand apart in the source and are kept apart here.

In test [1] the target is T1, human recombinant adrenergic α2B receptor (Homo sapiens, UniProt P18089).
T1 construct: expressed in transfected cells; host or cells: CHO-K1
T1 sequence (P18089 1-450): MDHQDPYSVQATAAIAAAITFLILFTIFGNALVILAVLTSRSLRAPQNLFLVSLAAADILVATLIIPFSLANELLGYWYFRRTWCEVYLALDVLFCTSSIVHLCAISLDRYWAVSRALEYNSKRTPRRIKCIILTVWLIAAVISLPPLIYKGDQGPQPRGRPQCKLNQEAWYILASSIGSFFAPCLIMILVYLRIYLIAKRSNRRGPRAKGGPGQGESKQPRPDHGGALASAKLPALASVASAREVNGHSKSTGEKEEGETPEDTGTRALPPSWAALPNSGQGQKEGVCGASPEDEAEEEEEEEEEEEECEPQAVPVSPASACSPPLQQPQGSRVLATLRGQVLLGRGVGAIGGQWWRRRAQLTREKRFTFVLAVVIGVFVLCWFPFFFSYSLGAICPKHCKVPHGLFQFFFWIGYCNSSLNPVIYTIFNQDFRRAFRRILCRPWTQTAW
As to the kind of experiment: Radioligand binding, adrenergic α2B ([3H]Rauwolscine). As to conditions: for Ki: read-out: Ki α2B. In outline: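 Readout: percent inhibition of specific [3H]Rauwolscine binding, measured by filtration and counting. Conditions: CHO-K1 cell-expressed receptor, 2.5 nM radioligand, 60 min, 25° C, Tris-HCl pH 7.4 buffer with MgCl2, EDTA, BSA. Non-specific binding: 10 μM Prazosin.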

For test [2], the target named is T2, human recombinant adrenergic α1D receptor (Homo sapiens, UniProt P25100).
T2 construct: expressed in transfected cells; host or cells: HEK-293
T2 sequence (P25100 1-572): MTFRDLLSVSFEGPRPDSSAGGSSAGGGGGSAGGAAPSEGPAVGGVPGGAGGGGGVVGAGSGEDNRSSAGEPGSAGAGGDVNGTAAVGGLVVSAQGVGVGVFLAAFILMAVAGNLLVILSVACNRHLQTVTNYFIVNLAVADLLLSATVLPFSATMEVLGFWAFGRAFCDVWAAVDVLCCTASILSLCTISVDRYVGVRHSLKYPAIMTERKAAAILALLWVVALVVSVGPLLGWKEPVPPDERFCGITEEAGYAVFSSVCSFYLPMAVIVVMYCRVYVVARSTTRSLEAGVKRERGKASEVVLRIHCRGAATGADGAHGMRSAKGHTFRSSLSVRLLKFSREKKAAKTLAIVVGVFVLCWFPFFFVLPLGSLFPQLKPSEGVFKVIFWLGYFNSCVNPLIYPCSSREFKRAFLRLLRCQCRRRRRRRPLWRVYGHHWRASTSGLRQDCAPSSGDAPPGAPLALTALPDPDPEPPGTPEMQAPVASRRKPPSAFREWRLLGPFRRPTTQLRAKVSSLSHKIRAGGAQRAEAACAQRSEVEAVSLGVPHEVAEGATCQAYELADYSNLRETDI
As to the kind of experiment: Radioligand binding, adrenergic α1D ([3H]Prazosin). As for the experimental part:
Compounds were incubated with 0.6 nM [3H]Prazosin for 60 min at 25° C. Non-specific binding was estimated in the presence of 10 μM phentolamine. Receptor proteins were filtered and washed, the filters were then counted to determine [3H]Prazosin specifically bound. […] Biochemical assay results are presented as the percent inhibition of specific binding in Table B1.

Test [3] addresses T3, human recombinant adrenergic α2A receptor (Homo sapiens, UniProt P08913).
T3 construct: expressed in transfected cells; host or cells: insect Sf9 cells
T3 sequence (P08913 1-465): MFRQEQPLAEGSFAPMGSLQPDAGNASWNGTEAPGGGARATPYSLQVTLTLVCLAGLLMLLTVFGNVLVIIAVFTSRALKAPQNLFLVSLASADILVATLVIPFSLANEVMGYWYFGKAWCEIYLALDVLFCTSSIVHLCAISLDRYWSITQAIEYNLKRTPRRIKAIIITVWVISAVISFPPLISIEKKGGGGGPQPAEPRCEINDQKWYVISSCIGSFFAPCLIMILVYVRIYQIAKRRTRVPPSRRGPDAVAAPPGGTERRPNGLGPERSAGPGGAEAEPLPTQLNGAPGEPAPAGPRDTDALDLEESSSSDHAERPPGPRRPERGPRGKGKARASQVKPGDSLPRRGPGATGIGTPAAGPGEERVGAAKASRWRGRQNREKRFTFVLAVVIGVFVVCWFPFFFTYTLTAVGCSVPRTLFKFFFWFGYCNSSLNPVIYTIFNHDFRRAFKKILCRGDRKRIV
Description: Radioligand binding, adrenergic α2A ([3H]MK-912). In outline: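 Sf9 membranes, 1 nM [3H]MK-912, 60 min, 25 °C, Tris-HCl pH 7.4/MgCl2/EDTA buffer. NSB: 10 μM WB-4101. Filtration, counting; % inhibition of specific binding.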

The target of test [4] is T4, rat adrenergic α1B receptor (Rattus norvegicus, UniProt P15823).
T4 construct: rat adrenergic α1B receptor obtained from Wistar Rat liver; from tissue; host or cells: Wistar rat liver
T4 sequence (P15823 1-515): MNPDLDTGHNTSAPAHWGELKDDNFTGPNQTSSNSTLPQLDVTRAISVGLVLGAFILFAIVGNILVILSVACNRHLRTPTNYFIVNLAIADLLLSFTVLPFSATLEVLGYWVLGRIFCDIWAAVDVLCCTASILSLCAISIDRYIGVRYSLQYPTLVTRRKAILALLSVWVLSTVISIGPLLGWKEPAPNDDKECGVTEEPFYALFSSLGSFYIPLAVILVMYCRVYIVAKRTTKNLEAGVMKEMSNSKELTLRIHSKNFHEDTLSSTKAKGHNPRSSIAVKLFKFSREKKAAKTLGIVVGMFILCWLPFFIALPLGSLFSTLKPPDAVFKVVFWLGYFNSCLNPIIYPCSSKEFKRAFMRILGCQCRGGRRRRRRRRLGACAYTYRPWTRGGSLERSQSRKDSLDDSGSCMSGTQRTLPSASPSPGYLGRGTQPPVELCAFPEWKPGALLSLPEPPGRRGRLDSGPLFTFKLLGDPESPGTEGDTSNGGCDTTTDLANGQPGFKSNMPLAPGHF
As to the kind of experiment: Radioligand binding, adrenergic α1B ([3H]Prazosin). In outline: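 Rat α1B receptor from Wistar rat liver was incubated with 0.25 nM [3H]prazosin for 60 min at 25 °C in 50 mM Tris-HCl, pH 7.4, 0.5 mM EDTA. Non-specific binding was defined with 10 μM phentolamine. Bound radioligand was measured by filtration and counting, reported as percent inhibition of specific binding.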

The mark [5] stands for this setting: 0.1 μM compound, read-out: Percentage inhibition of ligand binding, Adrenergic α2B.
[6] abbreviates: 0.1 μM compound, read-out: Percentage inhibition of ligand binding, Adrenergic α1D.
Where [7] appears, read: 0.1 μM compound, read-out: Percentage inhibition of ligand binding, Adrenergic α2A.
Setting [8] is: 0.1 μM compound, read-out: Percentage inhibition of ligand binding, Adrenergic α1B.
Where [9] appears, read: read-out: Percentage inhibition of ligand binding, Adrenergic α2B (0.1 μM), compound at 0.1 μM, [3H]Rauwolscine, repeat datapoints each shown.
Setting [10] is: read-out: Percentage inhibition of ligand binding, Adrenergic α1D (0.1 μM), compound at 0.1 μM, [3H]Prazosin, repeat datapoints each shown.
[11] abbreviates: read-out: Percentage inhibition of ligand binding, Adrenergic α2A (0.1 μM), compound at 0.1 μM, [3H]MK-912, repeat datapoints each shown.
[12] abbreviates: read-out: Percentage inhibition of ligand binding, Adrenergic α1B (0.1 μM), compound at 0.1 μM, [3H]Prazosin, repeat datapoints each shown.
Setting [13] is: compound at 0.1 μM, [3H]Rauwolscine, repeat assays, each datapoint shown, read-out: Percentage inhibition of ligand binding, Adrenergic α2B.
Setting [14] is: compound at 0.1 μM, [3H]Prazosin, repeat assays, each datapoint shown, read-out: Percentage inhibition of ligand binding, Adrenergic α1D.
The mark [15] stands for this setting: compound at 0.1 μM, [3H]MK-912, repeat assays, each datapoint shown, read-out: Percentage inhibition of ligand binding, Adrenergic α2A.
Setting [16] is: compound at 0.1 μM, [3H]Prazosin, repeat assays, each datapoint shown, read-out: Percentage inhibition of ligand binding, Adrenergic α1B.

In the case of `CCc1ccc(/C(C)=C/n2c3c(c4cc(C)ccc42)CN(C)CC3)cn1` [II-77], the inhibition – broadly, the drop in the measured response relative to a control, in per cent – at 0.1 µM in test [1] (setting [5]) was 108%; in test [2] (setting [6]), 66%; in test [3] (setting [7]) it was 43%; in test [4] (setting [8]) it was 54%.

Turning to `Cc1ccc2c(c1)c1c(n2C2=C(c3ccc(C)nc3)CCC2)CCN(C)C1` [II-82, 2,8-dimethyl-5-(2-(6-methylpyridin-3-yl)cyclopent-1-enyl)-2,3,4,5-tetrahydro-1H-pyrido[4,3-b]indole], the inhibition at 0.03 µM in test [1] (0.03 μM compound, read-out: Percentage inhibition of ligand binding, Adrenergic α2B) came out at 35%. In addition, the “Percentage inhibition of ligand binding, Adrenergic α2B” value in test [1] (0.1 μM compound, 0.1 µM) is recorded as 53%. In addition, the inhibition at 0.1 µM in test [1] (setting [5]) stood at 48%; in test [2] (setting [6]) it was 23%; in test [3] (setting [7]) it was 45%; in test [4] (setting [8]), 13%. For the same molecule, the inhibition constant Ki (usually a dissociation constant, usually derived from enzyme kinetics or from competition with a known ligand) in test [1] is 0.0268 µM.

As to `C/C(=C\n1c2c(c3cc(C)ccc31)CN(C)CC2)c1ccc(F)nc1` [II-96], the inhibition at 0.1 µM in test [1] (setting [5]) stood at 95%; in test [2] (setting [6]), 31%; in test [3] (setting [7]), 49%; in test [4] (setting [8]), 39%.

Consider `CN1CCc2c(c3cccnc3n2CCc2ccc(C(F)(F)F)nc2)C1` [II-103, 6-methyl-9-(2-(6-(trifluoromethyl)pyridin-3-yl)ethyl)-6,7,8,9-tetrahydro-5H-pyrrolo[2,3-b:4,5-c′]dipyridine], for which the inhibition at 0.1 µM is 35% in test [1] (setting [5]), 8% in test [2] (setting [6]), -5% in test [3] (setting [7]) and 1% in test [4] (setting [8]).

Consider `Cc1cnc2c(c1)c1c(n2CCc2ccc(C(F)(F)F)nc2)CCN(C)C1` [II-119, 3,6-dimethyl-9-(2-(6-(trifluoromethyl)pyridin-3-yl)ethyl)-6,7,8,9-tetrahydro-5H-pyrrolo[2,3-b:4,5-c′]dipyridine], for which the inhibition at 0.1 µM in test [1] (setting [9]) was 27%; in test [2] (setting [10]), 53%; in test [3] (setting [11]) it was -4%; in test [4] (setting [12]), 23%.

`CCC1c2c(c3cc(Cl)ccc3n2CC(C)(O)c2ccc(F)cc2)CCN1C` (stereo not drawn) [II-161]: the inhibition at 0.1 µM in test [1] (setting [9]) came out at 13%; in test [2] (setting [10]), 2%; in test [3] (setting [11]), 7%; in test [4] (setting [12]), 7%.

On to `COc1ccc(C(C)(O)Cn2c3c(c4cc(C)ccc42)CN(C)CC3)cc1F` (stereo not drawn) [II-163], for which the inhibition at 0.1 µM worked out at 86% in test [1] (setting [9]), 28% in test [2] (setting [10]), 41% in test [3] (setting [11]) and 66% in test [4] (setting [12]).

For the molecule `COc1ccc(C(C)(O)Cn2c3c(c4cc(Cl)ccc42)C2CCC(C3)N2C)cc1F` (stereo not drawn) [II-164], the inhibition at 0.1 µM came to 40% in test [1] (setting [9]), 0% in test [2] (setting [10]), 15% in test [3] (setting [11]) and 12% in test [4] (setting [12]).

Take `CN1CCc2c(c3ccccc3n2CC(C)(O)c2ccncc2)C1` (stereo not drawn) [II-171]: the inhibition at 0.1 µM in test [1] (setting [9]) is 94%; in test [2] (setting [10]) it was 55%; in test [3] (setting [11]), 96%; in test [4] (setting [12]) it was 95%.

As to `Cc1ccc(CCn2c3c(c4cccnc42)CN2CCCC2C3)cn1` (stereo not drawn) [II-234], the inhibition at 0.1 µM was 33% in test [1] (setting [9]), -1% in test [2] (setting [10]), 7% in test [3] (setting [11]) and -8% in test [4] (setting [12]).

As to `Cc1cnc2c(c1)c1c(n2CCc2ccc(C)nc2)CC2CCCN2C1` (stereo not drawn) [II-235], the inhibition at 0.1 µM in test [1] (setting [9]) was 45%; in test [2] (setting [10]), 28%; in test [3] (setting [11]), 3%; in test [4] (setting [12]) it was 58%.

`Cc1ccc(CCn2c3c(c4cccnc42)C2CCCN2CC3)cn1` (stereo not drawn) [IV-4]: the inhibition at 0.1 µM in test [1] (setting [9]) was 56%; in test [2] (setting [10]) it was 15%; in test [3] (setting [11]), -3%; in test [4] (setting [12]), 2%.

As for `CN1CCc2c(c3cc(Cl)ccc3n2CC(C)(O)c2ccncc2)C1` (stereo not drawn) [compound 1], the inhibition at 0.1 µM in test [1] (setting [13]) turned out to be 74%; in test [2] (setting [14]), 16%; in test [3] (setting [15]), 6%; in test [4] (setting [16]) it was 32%.

Turning to `Cc1ccc2c(c1)c1c(n2CC(C)(O)c2ccc(C)nc2)CCN(C)C1` (stereo not drawn) [compound 29], the inhibition at 0.1 µM in test [1] (setting [13]) came to 100%; in test [2] (setting [14]) it was 1%; in test [3] (setting [15]), 10%; in test [4] (setting [16]) it was 24%.

Consider `CN1CCc2c(c3cccc(Cl)c3n2CC(C)(O)c2ccncc2)C1` (stereo not drawn) [compound 32], for which the inhibition at 0.1 µM in test [1] (setting [13]) was determined as 86%; in test [2] (setting [14]) it was 7%; in test [3] (setting [15]) it was 28%; in test [4] (setting [16]), 12%.

Regarding `CN1CCc2c(c3cc(Cl)ccc3n2CCc2cccnc2)C1` [compound 60], the inhibition at 0.03 µM in test [1] (compound at 0.03 μM, [3H]Rauwolscine, repeat assays, each datapoint shown, read-out: Percentage inhibition of ligand binding, Adrenergic α2B) amounted to 66%. Moreover, the inhibition at 0.1 µM in test [1] (setting [13]) amounted to 93%; in test [2] (setting [14]), 35%; in test [3] (setting [15]), 26%; in test [4] (setting [16]), 65%. The Ki in test [1] stood at 0.00584 µM.
